Test system: mouse bone marrow cells
Experiment: Activation of bone marrow cells from TLR knockout mice (intracellular TNF-α staining, FACS)
Type: cell-based
Conditions: TLR2−/−, TLR4−/− and TLR2/4−/− cells
Procedure: The ability of this P. gingivalis LPS preparation to activate mouse bone marrow cells obtained from TLR2^−/−, TLR4^−/−, and TLR2/4^−/− knockout mice was examined to determine if endogenous TLR2 and TLR4 were utilized. Activation was determined by intracellular TNF-α staining and fluorescence-activated cell sorter analysis.

Pam3CSK4
TLR usage in bone marrow cells of knockout mice: utilized their respective cognate TLR

Reference: patent US7622128B2, “Porphyromonas gingivalis 1435/1449 LPS as an immune modulator” (priority 2005, dated 2009)
